From ChEMBL document CHEMBL1139001, “Alkyl-linked bis-THTT derivatives as potent in vitro trypanocidal agents” (Bioorg Med Chem Lett, 2006) come the findings set out here.

Series [1] in a line: Therapeutic index (cytotoxicity/antiprotozoal activity). It counts as cell-based. Conditions: human, KB cells; read-out: Ratio IC50.
The test system of series [2] is Trypanosoma brucei rhodesiense. The series is described as follows: Antitrypanosomal activity against Trypanosoma brucei rhodesiense STIB900. It counts as functional, organism-based.
Series [3] in a line: Therapeutic index (cytotoxicity/antitrypanosomal activity). It counts as cell-based. Conditions: human, KB cells; read-out: Ratio IC50.
The test system of a further series is Plasmodium falciparum. The series is described as follows: Antiplasmodial activity against Plasmodium falciparum 3D7. It counts as functional, organism-based.
The nature of series [4]: Therapeutic index, ratio of cytotoxicity/antiplasmodial activity. It counts as cell-based. The conditions noted are these: human, KB cells; read-out: Ratio IC50.
Another series concerns KB. The series is described as follows: Cytotoxicity against KB cell line. It counts as functional, cell-based. The conditions noted are these: Homo sapiens.
Another series deals with Leishmania donovani. Description: Antiprotozoal activity against Leishmania donovani. It counts as functional, organism-based.

For the compound `CSCCC(C(=O)O)N1CSC(=S)N(CCCCCCN2CN(C(CCSC)C(=O)O)CSC2=S)C1` (stereo unspecified), the selectivity ratio in series [1] was found to be 7.3; in series [3], 41.2; in series [4], 3.7. In addition, the IC50 (in general, the concentration that inhibits the measured activity by half) in series [2] was 2.3 µM; in the series with Plasmodium falciparum it was 14.2 µM; in the series with KB it was 52.5 µM; with Leishmania donovani, 7.26 µM.
As for `NC(=O)CC(C(=O)O)N1CSC(=S)N(CCCCCCN2CN(C(CC(N)=O)C(=O)O)CSC2=S)C1` (stereo unspecified), the selectivity ratio was over 30 in series [1], over 10 in series [3] and over 2 in series [4]. Besides, the half-inhibitory concentration (IC50) in series [2] was 5.34 µM; in the series on Plasmodium falciparum, 39.5 µM; in the series with KB, over 51.7 µM; with Leishmania donovani, 19.5 µM.
In the case of `O=C(O)CCN1CSC(=S)N(CCCCCCN2CN(CCC(=O)O)CSC2=S)C1`, the selectivity ratio in series [1] is 5.6; in series [3], 21.8; in series [4], 0.9. Moreover, the IC50 in series [2] came out at 0.56 µM; with Plasmodium falciparum, 13.1 µM; in the series on KB, 12.3 µM; in the series on Leishmania donovani, 2.18 µM.
As to `O=C(O)CC(C(=O)O)N1CSC(=S)N(CCCCCCN2CN(C(CC(=O)O)C(=O)O)CSC2=S)C1` (stereo unspecified), the IC50 in series [2] worked out at 3.6 µM; in the series with Plasmodium falciparum, 23.2 µM; in the series with KB it was 76.3 µM; with Leishmania donovani, 30.2 µM. Also, in series [4], the selectivity ratio came out at 0.9.
Compound `COc1cc([C@@H]2c3cc4c(cc3[C@H](O)[C@H]3COC(=O)[C@H]23)OCO4)cc(OC)c1OC` [PODOFILOX] registered an IC50 with KB of 0.0036 µM.
`O=C(O)CN1CSC(=S)N(CCCCCCN2CN(CC(=O)O)CSC2=S)C1`: the selectivity ratio is 1.2 in series [1], 11.4 in series [3] and 0.8 in series [4]. The half-maximal inhibitory concentration (IC50) stood at 0.73 µM in series [2], 11 µM in the series on Plasmodium falciparum, 8.33 µM with KB and 7.07 µM in the series on Leishmania donovani.
In the case of `O=C(O)C(Cc1ccccc1)N1CSC(=S)N(CCCCCCN2CN(C(Cc3ccccc3)C(=O)O)CSC2=S)C1` (stereo unspecified), the selectivity ratio is 1.1 in series [1], 7.9 in series [3] and 0.6 in series [4]. The IC50 was found to be 0.73 µM in series [2], 9.13 µM in the series on Plasmodium falciparum, 5.73 µM in the series with KB and 5.42 µM in the series on Leishmania donovani.
As for `NC(=O)CCC(C(=O)O)N1CSC(=S)N(CCCCCCN2CN(C(CCC(N)=O)C(=O)O)CSC2=S)C1` (stereo unspecified), the 50% inhibitory concentration (IC50) was 9.37 µM in series [2], 11 µM in the series on Plasmodium falciparum, 52 µM in the series on KB and over 49 µM in the series with Leishmania donovani. Moreover, the selectivity ratio in series [3] was found to be 5.8; in series [4], 4.7.
Regarding `O=C(O)CCCCN1CSC(=S)N(CCCCCCN2CN(CCCCC(=O)O)CSC2=S)C1`, the selectivity ratio was determined as 2.4 in series [1], 44.4 in series [3] and 1 in series [4]. Further, the IC50 in series [2] turned out to be 0.36 µM; with Plasmodium falciparum, 16.9 µM; in the series with KB it was 16.1 µM; in the series on Leishmania donovani it was 6.47 µM.
Consider `O=C(O)CCCN1CSC(=S)N(CCCCCCN2CN(CCCC(=O)O)CSC2=S)C1`, for which the IC50 was 4.27 µM in series [2], 43.3 µM in the series with Plasmodium falciparum, 11.7 µM with KB and 24.3 µM in the series on Leishmania donovani. In series [4], the selectivity ratio was determined as 2.
For the compound `CC(C)(CN1CN(CC(=O)O)CSC1=S)CN1CN(CC(=O)O)CSC1=S`, the selectivity ratio in series [1] was 0.7; in series [3], 1.7; in series [4], 1.3. The half-maximal inhibitory concentration (IC50) was determined as 2.88 µM in series [2], 3.76 µM in the series on Plasmodium falciparum, 5.09 µM with KB and 6.85 µM in the series with Leishmania donovani.
For the compound `CC(C)(CN1CN(C(Cc2ccccc2)C(=O)O)CSC1=S)CN1CN(C(Cc2ccccc2)C(=O)O)CSC1=S` (stereo unspecified), the values for the selectivity ratio in series [1], in series [3] and in series [4] were 0.4, 2.1 and 0.2, respectively. Also, the IC50 in series [2] was 1.04 µM; with Plasmodium falciparum it was 9.56 µM; in the series with KB, 2.21 µM; in the series on Leishmania donovani, 5.54 µM.
Consider `CC(C)(CN1CN(CCCCC(=O)O)CSC1=S)CN1CN(CCCCC(=O)O)CSC1=S`, for which the figures for the selectivity ratio in series [1], in series [3] and in series [4] were 1.1, 3.4 and 0.9, respectively. The IC50 was 2.48 µM in series [2], 9.04 µM with Plasmodium falciparum, 8.16 µM in the series with KB and 7.27 µM with Leishmania donovani.
Regarding `N=C(N)c1ccc(OCCCCCOc2ccc(C(=N)N)cc2)cc1` [PENTAMIDINE], in series [2], it took 0.011 µM to reach half-maximal inhibition (IC50).
